Source: ChEMBL document CHEMBL1201862, “PubChem BioAssay data set” (2004)
Counter-ions that a name gives are not always drawn. Activity calls are given as the source filed them.

Tests used:
[1] = Counterscreen for activators of the function of SWI/SNF related, matrix associated, actin dependent regulator of chromatin, subfamily a, member 2 (SMARCA2, BRM): Luminescence-based cell-based high throughput dose response assay to identify non-selective compounds using the VP16 reporter assay.; type: functional
[2] = viability loss of HMLE_sh_eGFP cells – cell-based, luminescence, counter-screen for HMLE_sh_ECad selective toxicity project, dose response (AID 463074); type: functional, Homo sapiens;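 note: HMLE human mammary epithelial cells expressing control shRNA against eGFP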
[3] = molecular target: T1, Latent membrane protein 1 (Human herpesvirus 4 (strain B95-8), UniProt P03230); assay: LMP1 TES1 pathway selectivity over dsRED control – imaging, HEK293T, dual-color eGFP/dsRED, cherry-picks, selectivity assay for LMP1 NF-kB inhibitor project, dose response (AID 588398); type: functional, cell-based
T1 sequence (P03230 whole entry): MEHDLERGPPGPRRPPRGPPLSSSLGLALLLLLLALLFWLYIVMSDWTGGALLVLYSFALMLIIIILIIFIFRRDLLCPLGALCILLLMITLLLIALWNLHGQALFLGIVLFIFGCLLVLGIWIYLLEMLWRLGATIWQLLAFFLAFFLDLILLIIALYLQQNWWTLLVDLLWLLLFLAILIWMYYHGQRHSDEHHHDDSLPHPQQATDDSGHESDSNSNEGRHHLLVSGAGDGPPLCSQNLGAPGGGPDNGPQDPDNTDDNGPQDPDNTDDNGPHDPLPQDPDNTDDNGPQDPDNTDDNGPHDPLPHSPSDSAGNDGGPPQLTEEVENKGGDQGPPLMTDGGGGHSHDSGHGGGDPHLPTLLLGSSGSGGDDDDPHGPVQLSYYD

[4] = molecular target: SWI/SNF-related matrix-associated actin-dependent regulator of chromatin subfamily A member 2 (Homo sapiens, UniProt P51531); assay: Luminescence-based cell-based high throughput dose response assay to identify activators of the function of SWI/SNF related, matrix associated, actin dependent regulator of chromatin, subfamily a, member 2 (SMARCA2, BRM).; type: functional
[5] = Luminescence Cell-Based Dose Retest to Confirm Inhibitors of Cancer Stem Cells. [Related pubchem assays (depositor defined):AID2717, AID2721]; type: functional; details: Homo sapiens
HeLa = assay: ATP-based viability loss in HeLa cells – cell-based, CellTiter-Glo luminescence, cherry-pick samples, cytotoxicity control for MITF activator project, dose response (AID 540259); type: functional; details: Homo sapiens
Candida albicans [6] = assay: fluconazole-resistant Candida strain growth inhibitors – CaCi-8 strain, dry powder, set 4, dose response (AID 488950); type: functional, organism-based
Candida albicans [7] = assay: C. albicans growth inhibition with fluconazole – CaCi-2 strain, Alamar Blue, dry powder, set 4, dose response (AID 488943); type: functional, organism-based
Candida albicans [8] = assay: Candida growth reduction in fluconazole presence – CaCi-2 strain, Alamar Blue, dry powder, set 2, antifungal resistance reversal project, dose response (AID 488930); type: functional, organism-based
Candida albicans [9] = assay: resistant Candida growth with fluconazole co-treatment – CaCi-8 strain, Alamar Blue, dry powder, set 2, dose response (AID 488909); type: functional, organism-based
Phospholipase D2 = Phospholipase D2 (Homo sapiens, UniProt O14939); assay: cellular phospholipase D2 inhibition IC50 – cell-based, dose response (AID 602147); type: functional;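 note: cellular assay in HEK293 cells overexpressing GFP-tagged PLD2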
Phospholipase D1 = molecular target: T2, Phospholipase D1 (Homo sapiens, UniProt Q13393); assay: cellular phospholipase D1 inhibition IC50 – cell-based, dose response (AID 602151); type: functional;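 note: cellular PLD1 assay in Calu-1 cells stimulated with PMA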
T2 sequence (Q13393 whole entry): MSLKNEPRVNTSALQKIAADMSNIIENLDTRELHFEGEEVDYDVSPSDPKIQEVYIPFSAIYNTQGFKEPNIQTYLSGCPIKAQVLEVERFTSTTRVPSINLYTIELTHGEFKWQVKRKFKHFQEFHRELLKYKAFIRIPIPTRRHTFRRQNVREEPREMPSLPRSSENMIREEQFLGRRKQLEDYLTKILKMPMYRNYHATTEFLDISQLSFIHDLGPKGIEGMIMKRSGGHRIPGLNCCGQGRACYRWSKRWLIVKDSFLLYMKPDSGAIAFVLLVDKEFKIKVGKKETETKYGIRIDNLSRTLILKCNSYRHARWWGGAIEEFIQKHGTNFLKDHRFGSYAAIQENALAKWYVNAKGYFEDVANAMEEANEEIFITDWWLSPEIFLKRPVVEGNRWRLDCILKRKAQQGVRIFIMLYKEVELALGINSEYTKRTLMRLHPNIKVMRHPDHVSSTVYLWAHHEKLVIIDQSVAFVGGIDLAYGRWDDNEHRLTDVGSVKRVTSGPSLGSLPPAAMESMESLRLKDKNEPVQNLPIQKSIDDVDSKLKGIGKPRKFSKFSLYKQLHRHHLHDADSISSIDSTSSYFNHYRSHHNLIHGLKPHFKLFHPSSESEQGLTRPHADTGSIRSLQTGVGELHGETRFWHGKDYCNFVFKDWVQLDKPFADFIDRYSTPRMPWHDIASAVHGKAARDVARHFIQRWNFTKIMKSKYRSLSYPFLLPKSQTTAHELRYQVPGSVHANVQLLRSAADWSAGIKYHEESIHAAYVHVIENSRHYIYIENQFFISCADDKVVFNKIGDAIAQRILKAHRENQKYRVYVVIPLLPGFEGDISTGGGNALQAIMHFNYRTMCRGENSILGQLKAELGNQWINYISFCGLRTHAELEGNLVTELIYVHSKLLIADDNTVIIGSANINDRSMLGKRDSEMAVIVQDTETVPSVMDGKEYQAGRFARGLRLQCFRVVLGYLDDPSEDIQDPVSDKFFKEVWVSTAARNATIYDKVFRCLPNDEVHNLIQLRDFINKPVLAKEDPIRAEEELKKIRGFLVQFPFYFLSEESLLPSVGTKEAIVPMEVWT

[10] = molecular target: Dual specificity protein kinase CLK1 (Homo sapiens, UniProt P49759); assay: inhibition of human CLK1 activity – biochemical, cherry-picked samples, selectivity assay for Dyrk1A inhibitor project, dose response (AID 588811)
[11] = molecular target: Voltage-gated inwardly rectifying potassium channel KCNH2 (Homo sapiens, UniProt Q12809); details: Potency;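 note: confirmatory quantitative high-throughput screen measuring inhibition of hERG channel activity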
[12] = microbe, parasite or virus in culture; type: functional; details: Mycobacterium tuberculosis

Chain of SWI/SNF-related matrix-associated actin-dependent regulator of chromatin subfamily A member 2 (P51531 whole entry): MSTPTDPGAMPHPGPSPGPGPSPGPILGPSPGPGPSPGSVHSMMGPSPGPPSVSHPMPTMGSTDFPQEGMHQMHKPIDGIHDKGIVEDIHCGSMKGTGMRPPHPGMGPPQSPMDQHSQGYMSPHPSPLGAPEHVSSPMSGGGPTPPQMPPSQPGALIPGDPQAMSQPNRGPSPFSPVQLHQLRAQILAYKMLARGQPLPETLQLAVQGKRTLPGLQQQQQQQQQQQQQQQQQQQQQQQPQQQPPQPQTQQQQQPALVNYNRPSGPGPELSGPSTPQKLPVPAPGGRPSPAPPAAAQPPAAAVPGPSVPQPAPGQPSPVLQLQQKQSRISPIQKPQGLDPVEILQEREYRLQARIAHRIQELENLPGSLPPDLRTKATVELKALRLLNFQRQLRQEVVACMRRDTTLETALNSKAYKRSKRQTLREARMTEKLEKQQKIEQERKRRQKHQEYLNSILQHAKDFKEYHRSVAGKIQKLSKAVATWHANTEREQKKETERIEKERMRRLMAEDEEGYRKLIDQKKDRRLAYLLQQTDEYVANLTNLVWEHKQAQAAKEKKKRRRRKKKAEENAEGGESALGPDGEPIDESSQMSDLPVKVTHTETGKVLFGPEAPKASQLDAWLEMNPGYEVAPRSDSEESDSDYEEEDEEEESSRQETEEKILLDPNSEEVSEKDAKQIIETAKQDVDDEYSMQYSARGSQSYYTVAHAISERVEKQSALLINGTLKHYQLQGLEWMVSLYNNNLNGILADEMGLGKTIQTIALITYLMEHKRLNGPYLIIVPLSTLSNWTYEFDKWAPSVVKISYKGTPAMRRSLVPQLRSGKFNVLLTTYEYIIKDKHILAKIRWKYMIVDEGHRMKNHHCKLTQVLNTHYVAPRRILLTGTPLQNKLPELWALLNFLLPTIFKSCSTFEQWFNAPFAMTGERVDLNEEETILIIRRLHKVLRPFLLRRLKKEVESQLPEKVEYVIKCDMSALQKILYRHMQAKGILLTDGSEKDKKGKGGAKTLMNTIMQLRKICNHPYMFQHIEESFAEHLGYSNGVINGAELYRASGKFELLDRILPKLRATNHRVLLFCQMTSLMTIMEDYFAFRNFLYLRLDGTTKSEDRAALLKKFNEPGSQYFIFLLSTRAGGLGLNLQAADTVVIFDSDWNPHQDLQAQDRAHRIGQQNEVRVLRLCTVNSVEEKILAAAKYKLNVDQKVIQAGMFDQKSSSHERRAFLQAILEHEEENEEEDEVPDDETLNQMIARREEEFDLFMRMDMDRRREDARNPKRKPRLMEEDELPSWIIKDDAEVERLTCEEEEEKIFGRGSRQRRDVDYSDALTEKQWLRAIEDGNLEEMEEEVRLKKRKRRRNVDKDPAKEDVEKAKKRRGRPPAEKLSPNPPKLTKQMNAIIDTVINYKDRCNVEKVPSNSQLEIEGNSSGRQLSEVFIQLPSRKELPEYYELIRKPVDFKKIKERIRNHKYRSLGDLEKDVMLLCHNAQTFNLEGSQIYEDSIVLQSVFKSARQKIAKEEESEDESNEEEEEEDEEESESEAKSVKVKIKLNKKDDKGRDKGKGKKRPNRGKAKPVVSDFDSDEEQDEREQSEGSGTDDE
Chain of Dual specificity protein kinase CLK1 (P49759 whole entry): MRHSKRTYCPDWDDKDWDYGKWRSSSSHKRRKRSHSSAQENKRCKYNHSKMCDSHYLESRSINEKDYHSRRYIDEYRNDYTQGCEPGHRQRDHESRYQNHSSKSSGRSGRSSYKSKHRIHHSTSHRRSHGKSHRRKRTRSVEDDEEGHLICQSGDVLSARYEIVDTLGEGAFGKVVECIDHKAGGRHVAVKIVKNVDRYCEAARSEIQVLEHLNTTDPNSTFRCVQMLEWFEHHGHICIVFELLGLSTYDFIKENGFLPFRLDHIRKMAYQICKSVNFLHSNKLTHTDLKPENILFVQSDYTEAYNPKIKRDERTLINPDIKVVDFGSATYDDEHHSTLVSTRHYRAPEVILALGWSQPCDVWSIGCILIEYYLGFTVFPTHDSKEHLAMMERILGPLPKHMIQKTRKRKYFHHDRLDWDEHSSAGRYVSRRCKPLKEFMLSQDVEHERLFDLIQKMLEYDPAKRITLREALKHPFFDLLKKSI
Chain of Phospholipase D2 (O14939 whole entry): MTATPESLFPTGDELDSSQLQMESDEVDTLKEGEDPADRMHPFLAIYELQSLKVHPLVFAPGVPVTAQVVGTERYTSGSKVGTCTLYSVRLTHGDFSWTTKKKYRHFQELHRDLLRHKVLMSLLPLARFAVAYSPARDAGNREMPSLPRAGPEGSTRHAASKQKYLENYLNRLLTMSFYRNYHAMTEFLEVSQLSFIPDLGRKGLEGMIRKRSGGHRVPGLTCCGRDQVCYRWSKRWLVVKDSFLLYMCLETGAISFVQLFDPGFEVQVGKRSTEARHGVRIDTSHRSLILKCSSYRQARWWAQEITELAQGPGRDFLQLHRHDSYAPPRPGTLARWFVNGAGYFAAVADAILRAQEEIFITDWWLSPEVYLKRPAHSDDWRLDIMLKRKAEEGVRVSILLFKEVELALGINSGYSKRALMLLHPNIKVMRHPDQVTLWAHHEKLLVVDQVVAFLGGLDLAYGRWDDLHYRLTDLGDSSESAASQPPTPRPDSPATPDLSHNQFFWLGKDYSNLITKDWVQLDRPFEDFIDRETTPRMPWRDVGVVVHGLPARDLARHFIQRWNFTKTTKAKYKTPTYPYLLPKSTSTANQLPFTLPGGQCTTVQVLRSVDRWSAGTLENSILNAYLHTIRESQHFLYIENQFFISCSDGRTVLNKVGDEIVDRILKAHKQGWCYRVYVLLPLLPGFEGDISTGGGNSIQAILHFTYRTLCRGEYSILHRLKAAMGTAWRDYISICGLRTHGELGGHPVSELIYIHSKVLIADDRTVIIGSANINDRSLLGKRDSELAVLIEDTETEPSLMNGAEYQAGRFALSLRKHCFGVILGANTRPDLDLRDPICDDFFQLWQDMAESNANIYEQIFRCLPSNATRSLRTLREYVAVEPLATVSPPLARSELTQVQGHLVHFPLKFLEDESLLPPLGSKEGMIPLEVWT
Chain of Voltage-gated inwardly rectifying potassium channel KCNH2 (Q12809 whole entry): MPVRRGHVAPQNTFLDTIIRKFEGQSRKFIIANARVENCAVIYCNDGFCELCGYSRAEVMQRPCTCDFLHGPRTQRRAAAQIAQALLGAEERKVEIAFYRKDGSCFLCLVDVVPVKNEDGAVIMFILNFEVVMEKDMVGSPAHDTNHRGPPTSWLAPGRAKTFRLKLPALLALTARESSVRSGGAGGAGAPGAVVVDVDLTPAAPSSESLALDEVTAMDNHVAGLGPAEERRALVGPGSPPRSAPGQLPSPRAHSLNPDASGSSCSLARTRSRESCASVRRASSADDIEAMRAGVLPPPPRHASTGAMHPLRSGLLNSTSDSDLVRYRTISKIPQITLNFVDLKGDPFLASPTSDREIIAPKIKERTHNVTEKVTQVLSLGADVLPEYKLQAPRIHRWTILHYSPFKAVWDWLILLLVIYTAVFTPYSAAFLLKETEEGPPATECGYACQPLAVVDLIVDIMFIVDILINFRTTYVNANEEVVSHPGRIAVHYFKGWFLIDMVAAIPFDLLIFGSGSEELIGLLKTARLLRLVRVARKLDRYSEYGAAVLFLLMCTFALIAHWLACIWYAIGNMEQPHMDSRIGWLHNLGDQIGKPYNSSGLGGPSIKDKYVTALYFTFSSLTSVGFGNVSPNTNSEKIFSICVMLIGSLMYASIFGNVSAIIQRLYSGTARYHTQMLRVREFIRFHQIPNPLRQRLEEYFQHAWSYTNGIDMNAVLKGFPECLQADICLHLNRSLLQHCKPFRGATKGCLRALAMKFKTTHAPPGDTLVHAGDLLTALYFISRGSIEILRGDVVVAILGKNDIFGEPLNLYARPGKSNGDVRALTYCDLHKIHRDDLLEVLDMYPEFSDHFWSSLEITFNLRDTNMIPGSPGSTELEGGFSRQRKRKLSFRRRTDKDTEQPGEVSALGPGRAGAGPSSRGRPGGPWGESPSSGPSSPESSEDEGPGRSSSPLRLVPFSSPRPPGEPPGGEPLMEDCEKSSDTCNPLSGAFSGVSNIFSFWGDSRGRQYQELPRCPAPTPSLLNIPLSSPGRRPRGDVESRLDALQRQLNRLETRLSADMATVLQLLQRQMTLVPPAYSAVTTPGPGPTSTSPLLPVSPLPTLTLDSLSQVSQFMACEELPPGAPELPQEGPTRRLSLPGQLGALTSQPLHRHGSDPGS

For `C=CC(=O)OCCOCCOCCOCCOC(=O)C=C`, the EC50 [1] was > 91.2 µM (inactive), the AC50 [2] was 92 µM (active) and the AC50 [3] was 25 µM (active). For the same molecule, the EC50 [4] was > 91.2 µM (inactive) and the AC50 [5] was 19.2 µM (active).

With `c1ccc(Cc2cc(-c3ccccc3)on2)cc1` the AC50 (HeLa) was 253 µM (active).

With `O=C(c1ccc(Cl)cn1)N1CCN(c2ccnc3cc(Cl)ccc23)CC1` the AC50 (Candida albicans [6]) was 3.17 µM (active), the AC50 (Candida albicans [7]) was 2.47 µM (active) and the AC50 (Candida albicans [8]) was 0.316 µM (active). The AC50 (Candida albicans [9]) was < 0.195 µM (active).

With `C[C@@H](CN1CCC(n2c(=O)[nH]c3ccc(F)cc32)CC1)NC(=O)c1ccc(Cl)cc1` the IC50 (Phospholipase D2) was 0.434 µM (active) and the IC50 (Phospholipase D1) was 0.004 µM (active).

For `Brc1ccc(CNc2nccc(-c3ccc4c(c3)OCO4)n2)cc1Br`, the AC50 [10] was 0.0049 µM (active).

With `CN1CCN2c3ccccc3Cc3ccccc3C2C1` (stereo not given) [MIANSERIN HYDROCHLORIDE] the AC50 [11] was 35.5 µM (inconclusive) and the CC50 [12] was > 40 µM (active).
